Data as given in patent publication US10857151B1, “Treatment of female genital schistosomiasis” (Villya LLC, priority 2020, dated 2020).

Legend:
[1] = tested on: schistosomiasis worms in the vagina; assay: Microscope observation of vaginal swab sample slides for schistosomiasis worms in FGS after treatment; type: in vivo, human; details: after two weeks
Description: A single dose of Praziquantel as described in Example 1 was vaginally inserted into the subject.

[2] = tested on: blood-borne infection of schistosomiasis; assay: Blood test for schistosomiasis using Schisto POC-CCA in FGS after treatment; type: in vivo, human; details: female with FGS; three doses of 20 mg/kg oral praziquantel; after two weeks

`O=C(C1CCCCC1)N1CC(=O)N2CCc3ccccc3C2C1` (stereo not drawn) [praziquantel] was tested, and the “observation of vaginal sample from brushing with a swab on microscope slides” value ([1]; female with FGS, three doses of 20 mg/kg oral praziquantel) was “live schistosomiasis worms still in the vagina”, the “slides observed under the microscope for schistosomiasis worms” value ([1]; single dose vaginally inserted as in Example 1 (600 mg praziquantel in 2.5 g K-Y Jelly), same subject after oral treatment) was “negative for schistosomiasis worms” and the “blood retested for schistosomiasis” value [2] was “negative for schistosomiasis”.
